Article PMC12589438 (Communications Chemistry, 2025)
Positions of bridges follow the written chain, without caps; N, C: chain ends. Non-standard residues stand in square brackets, D forms with d. Residues, ends and D or L forms follow the SMILES beside them. *: point of attachment. Benzoyl(4-F) = O=C(c1ccc(F)cc1)*; Mpa = O=C(O)CCS

Key:
in vitro = details: rat, serum
Method: One hundred and fifty microliters of rat or human serum (Sigma Aldrich) was preheated at 37 °C for 30 min. 25 μL of the tested peptide sample (0.3 M in 0.1 M potassium phosphate buffer at pH 7.2) or 0.1 M potassium phosphate buffer pH 7.2 (for blank sample) were added to the serum and incubated at 37 °C. […] Sampled were centrifugated at 20,000 × g for 10 min, and the supernatant analysed via LC-MS (column: Agilent Technology, Zorbex C18, 2.1 × 100 mm, 5 μm, 300 Å. Elution method: 0–50% B in 50 min, 0.25 mL/min. Solvent A: 0.1% TFA in H2O. Solvent B: 0.1% TFA in ACN). Each peptide sample was analysed in three independent experiments, and data analysis was performed using Prism Version 7, a nonlinear fit one-phase decay model.

physchem = details: buffer
Method: (§3) Tested peptides were dissolved (1 mM) in 100 mM sodium citrate buffer (pH 3), 100 mM potassium phosphate buffer (pH 7), or 100 mM sodium carbonate buffer (pH 9).

human V1aR = molecular target: T1, human V1aR (Homo sapiens, UniProt P37288); assay: FLIPR calcium mobilisation assay, hV1aR; type: cell-based; details: COS-1 cells transfected with hV1aR; n = 3, mean ± SEM
T1 construct: expressed in transfected cells; host or cells: COS-1
Method: (§1) OTR belongs to the rhodopsin-type (class I) G protein-coupled receptor (GPCR) family and is closely related to the vasopressin (VP) receptor (VPR) family (V1aR, V1bR, V2R). […] OTR, V1aR, and V1bR are expressed in the periphery and in CNS, while V2R is primarily expressed in the kidneys and was deemed not in scope for our exploration. The EC50 of our ligands was measured using a Fluorescent Imaging Plate Reader (FLIPR) calcium mobilisation assay (Fig. 2C)[34].
(§2) COS-1 cells were cultured in Dulbecco’s modified Eagle’s medium (DMEM) and 5% foetal bovine serum (FBS). […] Fluo-4-AM [4-(6-acetoxymethoxy-2,7-difluoro-3-oxo-9-xanthenyl)-4′-methyl-2,2′-(ethylenedioxy)dianilineN,N,N′,N′-tetraacetic acid tetrakis(acetoxymethyl) ester] ([…]) in PSS containing 0.3% fatty acid-free BSA was then added, and the cells incubated for 30 min at 37 °C. The cells were then transferred to a […] The baseline fluorescence was set to a minimum of 1000 arbitrary fluorescence units. The baseline fluorescence was read 10 times, followed by the addition of test compounds and fluorescence measurement every second for 180 s. The test compounds were added as an 8-point gradient in triplicate, with the highest concentration of 10 μM in PSS. To convert the raw fluorescence data to DF/F, the baseline fluorescence readings were subtracted from subsequent time points, and the resulting value was divided by the baseline fluorescence values.

[1] = Hydrophobicity assessment by analytical C18-RP-HPLC; type: physicochemical; details: 0–40% B
Method: To identify the most OT-like radiotracer, we first assessed the hydrophobicity of all compounds by comparing their retention times with OT on an analytical C18-RP-HPLC column (Fig. 2A).
Fig. 2 Pharmacological characterisation of OT analogues. […] B Metabolic stability of OT analogues in rat and human serum. Each time point was analysed in three independent experiments (n = 3 technical triplicates, mean ± SEM). C Potencies (EC50) values for OT and analogues at the human OTR, V1aR, and V1bR, determined by a FLIPR calcium mobilisation assay (n = 3 technical triplicates, mean ± SEM). […]; similar hydrophobicity with HPLC Rt ± 20% from OT; buffer t1/2 > 30 min at pH 7; […]; EC50 at OTR < 50 nM; EC50 at V1aR and V1bR < 5×EC50(OTR) (n.a.: not assessed).

human OTR = molecular target: T2, human OTR (Homo sapiens, UniProt P30559); assay: FLIPR calcium mobilisation assay, hOTR; type: cell-based; details: for EC50: COS-1 cells transfected with hOTR, n = 3, mean ± SEM
T2 construct: expressed in transfected cells; host or cells: COS-1
T2 sequence (P30559 1-389): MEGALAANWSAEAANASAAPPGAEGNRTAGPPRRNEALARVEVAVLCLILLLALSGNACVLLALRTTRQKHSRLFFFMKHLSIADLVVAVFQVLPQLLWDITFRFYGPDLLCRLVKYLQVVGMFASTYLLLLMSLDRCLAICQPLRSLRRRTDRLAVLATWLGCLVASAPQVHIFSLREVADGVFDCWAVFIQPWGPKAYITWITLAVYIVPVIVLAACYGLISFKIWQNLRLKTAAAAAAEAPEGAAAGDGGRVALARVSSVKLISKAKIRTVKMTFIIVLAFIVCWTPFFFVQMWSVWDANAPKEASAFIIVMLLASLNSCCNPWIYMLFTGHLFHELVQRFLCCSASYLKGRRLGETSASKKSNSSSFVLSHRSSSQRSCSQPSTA
Method: as §1
as §2, with “°C.” for “°C. The cells were then transferred to a”

human V1bR = molecular target: T3, human V1bR (Homo sapiens, UniProt P47901); assay: FLIPR calcium mobilisation assay, hV1bR; type: cell-based; details: COS-1 cells transfected with hV1bR; n = 3, mean ± SEM
T3 construct: expressed in transfected cells; host or cells: COS-1
T3 sequence (P47901 1-424): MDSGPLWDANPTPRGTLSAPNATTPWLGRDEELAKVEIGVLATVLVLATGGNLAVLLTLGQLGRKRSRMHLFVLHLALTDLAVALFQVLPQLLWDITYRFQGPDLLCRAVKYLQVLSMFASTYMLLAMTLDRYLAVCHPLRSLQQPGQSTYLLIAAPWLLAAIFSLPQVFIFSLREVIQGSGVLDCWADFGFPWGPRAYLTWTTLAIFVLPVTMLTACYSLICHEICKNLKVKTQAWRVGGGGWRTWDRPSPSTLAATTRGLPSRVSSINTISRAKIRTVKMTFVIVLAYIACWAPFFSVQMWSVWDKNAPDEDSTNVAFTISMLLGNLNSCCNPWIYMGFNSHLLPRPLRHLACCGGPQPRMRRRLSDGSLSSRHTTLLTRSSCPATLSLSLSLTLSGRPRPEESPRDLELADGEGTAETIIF
Method: as §1
as §2, with “°C.” for “°C. The cells were then transferred to a”

[2] = pH 7
Method: as §3

[3] = Stability test at different pH (buffered solutions); details: buffer
Method: as §3

[4] = pH 3, t1/2 pH 3.0, 100 mM sodium citrate buffer pH 3, 10 h
[5] = pH 7, t1/2 pH 7.0, 100 mM potassium phosphate buffer pH 7, 10 h
[6] = pH 9, t1/2 pH 9.0, 100 mM sodium carbonate buffer pH 9, 10 h

T1 sequence (P37288 whole entry): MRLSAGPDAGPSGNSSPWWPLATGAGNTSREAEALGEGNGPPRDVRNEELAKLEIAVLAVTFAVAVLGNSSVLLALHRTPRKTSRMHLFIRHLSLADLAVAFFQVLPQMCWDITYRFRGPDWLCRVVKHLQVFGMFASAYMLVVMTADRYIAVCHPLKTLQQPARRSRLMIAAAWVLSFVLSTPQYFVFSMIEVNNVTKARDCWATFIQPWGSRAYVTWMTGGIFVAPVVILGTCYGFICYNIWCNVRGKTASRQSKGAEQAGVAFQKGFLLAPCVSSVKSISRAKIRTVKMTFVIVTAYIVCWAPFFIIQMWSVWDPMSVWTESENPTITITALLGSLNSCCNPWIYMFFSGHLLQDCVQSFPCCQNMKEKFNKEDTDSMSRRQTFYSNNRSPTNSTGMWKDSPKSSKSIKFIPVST

`CC[C@H](C)[C@@H]1NC(=O)[C@H](Cc2ccc(O)cc2)NC(=O)[C@@H](N)CSSC[C@@H](C(=O)N2CCC[C@H]2C(=O)N[C@@H](CC(C)C)C(=O)NCC(N)=O)NC(=O)[C@H](CC(N)=O)NC(=O)[C@H](CCC(N)=O)NC1=O` [OT, oxytocin, reference compound] showed a half-life at 0.043 M (in vitro) of 47 ± 0.05 h, a half-life at 1 mM (physchem; pH 3) greater than 10 h and a half-life at 1 mM (physchem; pH 7) greater than 10 h. It also gave a half-life at 1 mM (physchem; pH 9) greater than 10 h.

In the case of `CC[C@H](C)[C@@H]1NC(=O)[C@H](Cc2ccc(O)cc2)NC(=O)[C@@H](N)CSSC[C@@H](C(=O)N2CCC[C@H]2C(=O)N[C@@H](CCCCNC(=O)CON=Cc2ccc(F)cc2)C(=O)NCC(N)=O)NC(=O)[C@H](CC(N)=O)NC(=O)[C@H](CCC(N)=O)NC1=O` [OTK^8[Aoa-FBA]], the half-life at 0.043 M (in vitro) is reported as 18 ± 0.04 h, the EC50 (human V1aR) is reported as 331.6 ± 0.4 nM and the half-life at 1 mM (physchem; pH 3) is reported as greater than 10 h. For the same molecule, the half-life at 1 mM (physchem; pH 7) was greater than 10 h, the half-life at 1 mM (physchem; pH 9) was greater than 10 h and the “hydrophobicity compared with OT (retention on C18-RP-HPLC)” value [1] was “significantly more hydrophobic”. For the same molecule, the EC50 (human OTR) was 42.1 ± 1.4 nM, the “fold less potent than OT at OTR” value (human OTR; EC50 compared with OT) was ~ 4 fold and the EC50 (human V1bR) was 354 ± 5.7 nM.

With `CC[C@H](C)[C@@H]1NC(=O)[C@H](Cc2ccc(O)cc2)NC(=O)[C@@H](N)CSSC[C@@H](C(=O)N2CCC[C@H]2C(=O)N[C@@H](CCCCNC(=O)CON=C[C@H](F)[C@@H](O)[C@H](O)[C@H](O)CO)C(=O)NCC(N)=O)NC(=O)[C@H](CC(N)=O)NC(=O)[C@H](CCC(N)=O)NC1=O` [OTK^8[Aoa-FDG]] the half-life at 0.043 M (in vitro) was 13 ± 0.11 h, the EC50 (human V1aR) was 115 ± 81 nM and the half-life at 1 mM (physchem; pH 3) was greater than 10 h. The half-life at 1 mM (physchem; pH 7) was greater than 10 h, the half-life at 1 mM (physchem; pH 9) was greater than 10 h and the “degradation within 10 h” value [2] was 25%. The EC50 (human OTR) was 5.25 ± 5.1 nM, the “fold more potent than OT at OTR” value (human OTR; EC50 compared with OT) was ~ 2 fold and the EC50 (human V1bR) was 54 ± 31 nM.

For `CC[C@H](C)[C@@H]1NC(=O)[C@H](Cc2ccc(O)cc2)NC(=O)CCSSC[C@@H](C(=O)N2CCC[C@H]2C(=O)N[C@@H](CCCCN(CCS(=O)(=O)F)CCS(=O)(=O)F)C(=O)NCC(N)=O)NC(=O)[C@H](CC(N)=O)NC(=O)[C@H](CCC(N)=O)NC1=O` [dOTK^8[ESF2]], the “hydrophobicity compared with OT (retention on C18-RP-HPLC)” value [1] was “significantly more hydrophobic”, the half-life at 1 mM [3, 4] was 3.6 h and the half-life at 1 mM ([3]; pH 7, t1/2 at pH 7, pH 7, as stated in main text) was less than 0.5 h. For the same molecule, the half-life at 1 mM [3, 5] was less than 1 h, the half-life at 1 mM ([3]; pH 9, t1/2 at pH 9, pH 9, as stated in main text) was less than 0.5 h and the half-life at 1 mM [3, 6] was less than 1 h.

In the case of `CC[C@H](C)[C@@H]1NC(=O)[C@H](Cc2ccc(O)cc2)NC(=O)CCSSC[C@@H](C(=O)N2CCC[C@H]2C(=O)N[C@@H](CCCCNCCS(=O)(=O)F)C(=O)NCC(N)=O)NC(=O)[C@H](CC(N)=O)NC(=O)[C@H](CCC(N)=O)NC1=O` [dOTK^8[ESF]], the half-life at 1 mM [3, 4] is reported as greater than 10 h, the half-life at 1 mM [3, 5] is reported as greater than 10 h and the half-life at 1 mM [3, 6] is reported as greater than 10 h.

With `CC[C@H](C)[C@@H]1NC(=O)[C@H](Cc2ccc(O)cc2)NC(=O)CCSSC[C@@H](C(=O)N2CCC[C@H]2C(=O)N[C@@H](CCCCNC(=O)c2ccc(F)cc2)C(=O)NCC(N)=O)NC(=O)[C@H](CC(N)=O)NC(=O)[C@H](CCC(N)=O)NC1=O` [dOTK^8[SFB]] ([Mpa]YIQNCPK(Benzoyl(4-F))G-NH2; disulfide 1-6) the half-life at 0.043 M (in vitro) was greater than 48 h, the EC50 (human V1aR) was 334.3 ± 0.6 nM and the half-life at 1 mM (physchem; pH 3) was greater than 10 h. For the same molecule, the half-life at 1 mM (physchem; pH 7) was greater than 10 h, the half-life at 1 mM (physchem; pH 9) was greater than 10 h and the “degradation within 10 h” value [2] was 25%. The EC50 (human OTR) was 46.8 ± 1.5 nM, the “fold less potent than OT at OTR” value (human OTR; EC50 compared with OT) was ~ 4 fold and the EC50 (human V1bR) was 46 ± 3.6 nM.
